Structures can show the parent of a compound that is named as a salt.
Legend:
[1] = Kinetic solubility test in water and bio-relevant media (SGF, FaSSIF, FeSSIF); assay type: physicochemical; details: for S: solubility: 37° C.; for Purity (%), area percentage of API: for reference only (suspensions); for FC: form change: residual solids by XRPD; for pH: supernatant; for Solubility in SGF, FaSSIF and FeSSIF compared with freeform: within 1 hour
Method: Weigh 100 mg of sodium chloride and 50 mg of Triton X-100 into a 50-mL volumetric flask. Add appropriate volume of purified water and sonicate until all solids are completely dissolved. Add about 68 μL of 12 M HCl and sufficient purified water closely to the target volume and adjust to pH 1.8. Dilute to volume with purified water, mix well and check the pH with a pH meter.
Weigh 170 mg of sodium phosphate monobasic, 21 mg of sodium hydroxide and 310 mg of sodium chloride, 110 mg of SIF powder into a 50-mL volumetric flask. Add appropriate volume of purified water and sonicate until all solids are completely dissolved. Add sufficient purified water closely to the target volume and adjust to pH 6.5. Dilute to volume with purified water, mix well and check the pH with a pH meter.
Weigh 0.41 mL of glacial acetic acid, 202 mg of sodium hydroxide and 594 mg of sodium chloride, 560 mg of SIF powder into a 50-mL volumetric flask. Add appropriate volume of purified water to dissolve the solids. Then add sufficient purified water closely to the target volume and adjust to pH 5.0. Dilute to volume with purified water, mix well and check the pH with a pH meter.
Kinetic solubility was evaluated in water and three bio-relevant media (SGF, FaSSIF and FeSSIF) for 1/4/24 hours. 3-4 mg of solids were suspended in 3 mL each medium (solid loading: 1 mg/mL, calculated using freeform) to get a suspension, followed by rolling (25 rpm) at 37° C. for 1/4/24 hours. At each time point, ˜1.0 mL of suspension was sampled out for centrifugation (12000 rpm, 2 min) and filtration through 0.45 μm PTFE membrane to obtain supernatant for HPLC and pH tests, the residual solids were analyzed by XRPD.
Kinetic solubility was evaluated for 1:1 Compound II Citrate Salt (Form A), 1:1 Compound II Tris Salt (Form B), and freeform of Compound II in water and three bio-relevant media (SGF, FaSSIF and FeSSIF) for 1/4/24 hours. 3-4 mg of solids were suspended in 3 mL each medium (solid loading:
1 mg/mL, calculated using freeform) to get a suspension, followed by rolling (25 rpm) at 37° C. for 1/4/24 hours. At each time point, ˜1.0 mL of suspension was sampled out for centrifugation (12000 rpm, 2 min) and filtration through 0.45 μm PTFE membrane to obtain supernatant for HPLC and pH tests, the residual solids were analyzed by XRPD. […] The purity results were for reference only since the samples were all suspensions.

[2] = VH-XRPD, dehydration of the hydrate; assay type: physicochemical
Method: VH-XRPD and single crystal structure determination were performed for 1:1 Compound I Tris Salt (Form A) and it was identified as a monohydrate, which would dehydrate at the ≤30%RH condition.
VH-XRPD was performed for a 1:1 Compound II tris salt (Form B) sample for further identification. […] Combining the characterization results, it is believe that 1:1 Compound II tris salt (Form B) is a hydrate, which would dehydrate below ≤10% RH.

## N#Cc1ccc(COc2cccc(C3=CCN(Cc4nc5ccc(C(=O)O)cc5n4C[C@@H]4CCO4)CC3)n2)c(F)c1 [Tris salt Form B, (S)-2-((6-((4-cyano-2-fluorobenzyl)oxy)-3′,6′-dihydro-[2,4′-bipyridin]-1′(2′H)-yl)methyl)-1-(oxetan-2-ylmethyl)-1H-benzo[d]imidazole-6-carboxylic acid]
[1]; FaSSIF, 1 hour
  S: solubility: 0.07 mg/mL
  Purity (%), area percentage of API: 72.58%
  pH: 6.6
[1]; FaSSIF, 4 hours
  S: solubility: 0.05 mg/mL
  Purity (%), area percentage of API: 59.86%
  FC: form change: Yes
  pH: 6.6
[1]; FaSSIF, 24 hours
  S: solubility: 0.1 mg/mL
  Purity (%), area percentage of API: 72.13%
  FC: form change: Yes
  pH: 6.5
[1]; FeSSIF, 1 hour
  S: solubility: 0.2 mg/mL
  Purity (%), area percentage of API: 98.18%
  FC: form change: No
  pH: 5.1
[1]; FeSSIF, 4 hours
  S: solubility: 0.3 mg/mL
  Purity (%), area percentage of API: 93.37%
  FC: form change: Yes
  pH: 5.1
[1]; FeSSIF, 24 hours
  S: solubility: 0.3 mg/mL
  Purity (%), area percentage of API: 80.52%
  FC: form change: Yes
  pH: 5.0
[1]; H2O, 1 hour
  S: solubility: 0.4 mg/mL
  Purity (%), area percentage of API: 93.07%
  FC: form change: No
  pH: 7.6
[1]; H2O, 4 hours
  S: solubility: 0.9 mg/mL
  Purity (%), area percentage of API: 93.13%
  FC: form change: Yes
  pH: 7.8
[1]; H2O, 24 hours
  S: solubility: 0.6 mg/mL
  Purity (%), area percentage of API: 92.03%
  FC: form change: Yes
  pH: 7.9
[1]; H2O, compared with the other tested materials
  Solubility in H2O, comparison in words: better solubility
[1]; SGF, 1 hour
  S: solubility: 0.6 mg/mL
  Purity (%), area percentage of API: 93.44%
  FC: form change: Yes
  pH: 1.9
[1]; SGF, 4 hours
  S: solubility: 0.2 mg/mL
  Purity (%), area percentage of API: 84.69%
  FC: form change: Yes
  pH: 2.0
[1]; SGF, 24 hours
  S: solubility: 0.2 mg/mL
  Purity (%), area percentage of API: 82.04%
  FC: form change: Yes
  pH: 2.0
[1]
  Solubility in SGF, FaSSIF and FeSSIF compared with freeform: higher than that of freeform
[2]
  Relative humidity at which the hydrate would dehydrate: ≤ 10 % RH

## N#Cc1ccc(COc2cccc(C3=CCN(Cc4nc5ccc(C(=O)O)cc5n4C[C@@H]4CCO4)CC3)n2)c(F)c1 [Citrate salt Form A, (S)-2-((6-((4-cyano-2-fluorobenzyl)oxy)-3′,6′-dihydro-[2,4′-bipyridin]-1′(2′H)-yl)methyl)-1-(oxetan-2-ylmethyl)-1H-benzo[d]imidazole-6-carboxylic acid]
[1]; FaSSIF, 1 hour
  S: solubility: 0.1 mg/mL
  Purity (%), area percentage of API: 94.86%
  FC: form change: No
  pH: 6.3
[1]; FaSSIF, 4 hours
  S: solubility: 0.02 mg/mL
  Purity (%), area percentage of API: 76.06%
  FC: form change: No
  pH: 6.3
[1]; FaSSIF, 24 hours
  S: solubility: 0.009 mg/mL
  Purity (%), area percentage of API: 61.96%
  FC: form change: Yes
  pH: 6.0
[1]; FeSSIF, 1 hour
  S: solubility: 0.2 mg/mL
  Purity (%), area percentage of API: 98.94%
  FC: form change: No
  pH: 5.0
[1]; FeSSIF, 4 hours
  S: solubility: 0.3 mg/mL
  Purity (%), area percentage of API: 95.25%
  pH: 5.0
[1]; FeSSIF, 24 hours
  S: solubility: 0.09 mg/mL
  Purity (%), area percentage of API: 79.88%
  FC: form change: Yes
  pH: 4.9
[1]; H2O, 1 hour
  S: solubility: 0.02 mg/mL
  Purity (%), area percentage of API: 100.00%
  FC: form change: No
  pH: 4.8
[1]; H2O, 4 hours
  S: solubility: 0.02 mg/mL
  Purity (%), area percentage of API: 91.26%
  FC: form change: No
  pH: 4.2
[1]; H2O, 24 hours
  S: solubility: 0.05 mg/mL
  Purity (%), area percentage of API: 86.05%
  FC: form change: No
  pH: 3.4
[1]; SGF, 1 hour
  S: solubility: 0.5 mg/mL
  Purity (%), area percentage of API: 96.79%
  FC: form change: Yes
  pH: 1.9
[1]; SGF, 4 hours
  S: solubility: 0.08 mg/mL
  Purity (%), area percentage of API: 91.83%
  FC: form change: Yes
  pH: 1.9
[1]; SGF, 24 hours
  S: solubility: 0.06 mg/mL
  Purity (%), area percentage of API: 90.59%
  FC: form change: Yes
  pH: 1.9
[1]
  Solubility in SGF, FaSSIF and FeSSIF compared with freeform: higher than that of freeform
